# Reference: US10941158B2, “Pyrazole ACC inhibitors and uses thereof” (Gilead Apollo, LLC, priority 2015, dated 2021)
# Like-named read-outs stand apart in the source and are kept apart here.
# How the values were obtained:
# [1] = system: ACC2; conditions: ACC2 isolated from rat, mouse, monkey and human; cited from earlier work
# [2] = system: ACC1; conditions: ACC1 isolated from rat, mouse, monkey and human; cited from earlier work
# [3] = system: Diplodia maydis (Dm); experiment: Growth inhibition assay of fungal pathogens; type: cell-based; conditions: Stenocarpella maydis, 48 h, read-out: Concentration at 90% Inhibition Dm
# How it was run: (§1)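 OD600 (blank-subtracted) plus visual scoring at 48 h, vs 2% DMSO ctrl → % inhibition. Final cpd 50/10/2 or 2/0.4/0.08 ppm. Fm/Bc/Dm spores in 17% V8 broth; Rs as 1.5 mm plugs in ¼ PDB.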
# [4] = system: Fusarium virguliforme (Fv); experiment: Growth inhibition assay of fungal pathogens; type: cell-based; conditions: 48 h
# How it was run: (§2)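 Compounds in DMSO tested at final 50, 10, 2 ppm or 2, 0.4, 0.08 ppm. Spores in 17% V8 medium, or 1.5 mm mycelial plugs in ¼ PDB for R. solani, incubated with compound. OD600 and visual ratings at 48 h versus 2% DMSO control gave percent growth inhibition.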
# [5] = system: Rhizoctonia solani (Rs); experiment: Growth inhibition assay of fungal pathogens; type: cell-based; conditions: 48 h, read-out: Concentration at 90% Inhibition Rs
# How it was run: as §1
# [6] = system: Fusarium moniliforme (Fm); experiment: Growth inhibition assay of fungal pathogens; type: cell-based; conditions: Fusarium verticillioides, 48 h, read-out: Concentration at 90% Inhibition Fm
# How it was run: as §1
# [7] = system: Botrtyis cinerea (Bc); experiment: Growth inhibition assay of fungal pathogens; type: cell-based; conditions: 48 h, read-out: Concentration at 90% Inhibition Bc
# How it was run: as §1
# [8] = system: Phytophthora capsici (Pc); experiment: Growth inhibition assay of fungal pathogens; type: cell-based; conditions: for IC90: Phytophthora capsici, read-out: Concentration at 90% Inhibition Pc
# How it was run: as §2
# [9] = system: Septoria tritici (St); experiment: Growth inhibition assay of fungal pathogens; type: cell-based; conditions: for IC90: Zymoseptoria tritici, read-out: Concentration at 90% Inhibition St
# How it was run: as §2
# [10] = system: Collectotrichum graminicola (Cg); experiment: Growth inhibition assay of fungal pathogens; type: cell-based; conditions: 48 h, read-out: Concentration at 90% Inhibition Cg
# How it was run: as §2
# [11] = molecular target: fungal (fACC2) ACC2 (UniProt Q00955); conditions: read-out: fACC2 IC50; fungal ACC2, ADP-Glo
# [12] = molecular target: human (hACC2) ACC2 (Homo sapiens, UniProt O00763); experiment: In vitro Acetyl-CoA Carboxylase (ACC) inhibition assay (ADP-Glo), hACC2; type: biochemical
# Protocol: The detailed procedure is as follows. […] 10 μL ADP glo reagent was added. […] 20 μL kinase detection reagent was added.
# “NA” stands for “not assayed.”
# [13] = system: C. parapsilosis ATCC 22019; experiment: Anti-Fungal (Candida) Activity Assay, broth microtiter MIC; type: cell-based; conditions: Lodderomyces parapsilosis, read-out: MIC C. parapsilosis ATCC 22019
# How it was run: (§3)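 Test compounds were dissolved in DMSO at 1 mg/mL (stock) and challenged against direct colony suspensions in RPMI 1640 with MOPS under CLSI M27-A3 broth microdilution. Growth was judged by eye relative to drug-free control after 48 h.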
# [14] = system: C. albicans ATCC 90028; experiment: as above; type: cell-based; conditions: read-out: MIC C. albicans ATCC 90028
# How it was run: as §3
# [15] = system: C. krusei ATCC 6258; experiment: as above; type: cell-based; conditions: Pichia kudriavzevii, read-out: MIC C. krusei ATCC 6258
# How it was run: as §3
# [16] = Table 4b, 48 hours, read-out: Concentration at 90% Inhibition Fv
# [17] = ATCC22019, 3 replicates, MIC recorded at 48 h
# [18] = ATCC90028, 3 replicates, MIC recorded at 48 h
# [19] = ATCC6258, 3 replicates, MIC recorded at 48 h
# fungal (fACC2) ACC2, sequence (Q00955 whole entry): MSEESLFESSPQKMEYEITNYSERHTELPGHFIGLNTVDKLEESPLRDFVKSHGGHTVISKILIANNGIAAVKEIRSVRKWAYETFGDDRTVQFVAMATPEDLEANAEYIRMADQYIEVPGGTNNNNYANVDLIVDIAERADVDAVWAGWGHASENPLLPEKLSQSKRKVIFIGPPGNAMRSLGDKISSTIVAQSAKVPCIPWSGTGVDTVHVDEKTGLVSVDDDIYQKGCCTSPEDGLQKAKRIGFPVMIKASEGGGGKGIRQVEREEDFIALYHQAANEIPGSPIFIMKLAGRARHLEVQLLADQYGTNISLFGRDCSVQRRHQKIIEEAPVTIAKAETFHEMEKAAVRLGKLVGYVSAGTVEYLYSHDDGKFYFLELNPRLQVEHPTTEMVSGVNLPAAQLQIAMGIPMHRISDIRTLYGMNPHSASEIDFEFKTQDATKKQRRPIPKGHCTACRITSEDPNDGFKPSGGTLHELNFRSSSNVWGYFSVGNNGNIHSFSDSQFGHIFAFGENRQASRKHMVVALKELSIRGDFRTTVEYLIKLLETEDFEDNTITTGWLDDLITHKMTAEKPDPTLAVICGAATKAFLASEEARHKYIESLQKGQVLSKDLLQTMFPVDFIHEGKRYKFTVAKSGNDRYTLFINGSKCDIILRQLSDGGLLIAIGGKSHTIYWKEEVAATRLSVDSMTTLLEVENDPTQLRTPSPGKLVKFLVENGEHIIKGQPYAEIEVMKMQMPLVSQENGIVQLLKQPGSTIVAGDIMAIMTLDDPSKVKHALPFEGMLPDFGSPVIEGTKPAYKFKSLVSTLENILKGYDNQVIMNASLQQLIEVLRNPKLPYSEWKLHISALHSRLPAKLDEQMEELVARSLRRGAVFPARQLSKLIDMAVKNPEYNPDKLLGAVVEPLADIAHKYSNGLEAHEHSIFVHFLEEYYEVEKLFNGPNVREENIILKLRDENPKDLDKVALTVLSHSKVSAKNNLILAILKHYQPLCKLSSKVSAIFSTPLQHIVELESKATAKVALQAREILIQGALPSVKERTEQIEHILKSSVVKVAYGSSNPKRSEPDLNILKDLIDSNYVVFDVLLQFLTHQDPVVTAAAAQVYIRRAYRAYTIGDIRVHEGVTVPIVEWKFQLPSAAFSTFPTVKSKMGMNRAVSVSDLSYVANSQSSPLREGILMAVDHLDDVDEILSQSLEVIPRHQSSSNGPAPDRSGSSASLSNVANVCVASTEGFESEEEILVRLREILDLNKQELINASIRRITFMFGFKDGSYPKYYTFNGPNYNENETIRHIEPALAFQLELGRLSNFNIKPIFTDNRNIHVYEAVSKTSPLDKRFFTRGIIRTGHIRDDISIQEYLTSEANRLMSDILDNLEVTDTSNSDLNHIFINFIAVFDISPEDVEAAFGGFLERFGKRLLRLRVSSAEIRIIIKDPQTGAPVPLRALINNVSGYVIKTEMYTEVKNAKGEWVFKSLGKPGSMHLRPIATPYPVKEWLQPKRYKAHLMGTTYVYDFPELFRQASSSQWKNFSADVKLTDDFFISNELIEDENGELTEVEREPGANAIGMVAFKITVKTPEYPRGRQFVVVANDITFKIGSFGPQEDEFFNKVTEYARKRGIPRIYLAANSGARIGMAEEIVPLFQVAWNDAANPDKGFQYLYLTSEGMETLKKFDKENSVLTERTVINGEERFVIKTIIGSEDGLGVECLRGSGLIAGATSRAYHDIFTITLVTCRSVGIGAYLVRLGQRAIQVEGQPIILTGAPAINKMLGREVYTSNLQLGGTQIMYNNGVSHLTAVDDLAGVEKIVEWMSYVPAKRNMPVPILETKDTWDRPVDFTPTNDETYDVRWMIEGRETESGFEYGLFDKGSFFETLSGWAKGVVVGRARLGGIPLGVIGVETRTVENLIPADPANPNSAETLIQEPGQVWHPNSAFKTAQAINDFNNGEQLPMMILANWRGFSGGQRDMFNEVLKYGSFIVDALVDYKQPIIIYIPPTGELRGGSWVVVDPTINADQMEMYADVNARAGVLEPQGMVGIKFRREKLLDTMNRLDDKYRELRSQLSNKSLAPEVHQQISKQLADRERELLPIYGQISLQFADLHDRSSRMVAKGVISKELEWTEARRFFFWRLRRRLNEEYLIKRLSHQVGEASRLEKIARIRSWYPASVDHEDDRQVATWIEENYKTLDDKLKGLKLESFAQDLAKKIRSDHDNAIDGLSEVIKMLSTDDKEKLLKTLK
# human (hACC2) ACC2, sequence (O00763 whole entry): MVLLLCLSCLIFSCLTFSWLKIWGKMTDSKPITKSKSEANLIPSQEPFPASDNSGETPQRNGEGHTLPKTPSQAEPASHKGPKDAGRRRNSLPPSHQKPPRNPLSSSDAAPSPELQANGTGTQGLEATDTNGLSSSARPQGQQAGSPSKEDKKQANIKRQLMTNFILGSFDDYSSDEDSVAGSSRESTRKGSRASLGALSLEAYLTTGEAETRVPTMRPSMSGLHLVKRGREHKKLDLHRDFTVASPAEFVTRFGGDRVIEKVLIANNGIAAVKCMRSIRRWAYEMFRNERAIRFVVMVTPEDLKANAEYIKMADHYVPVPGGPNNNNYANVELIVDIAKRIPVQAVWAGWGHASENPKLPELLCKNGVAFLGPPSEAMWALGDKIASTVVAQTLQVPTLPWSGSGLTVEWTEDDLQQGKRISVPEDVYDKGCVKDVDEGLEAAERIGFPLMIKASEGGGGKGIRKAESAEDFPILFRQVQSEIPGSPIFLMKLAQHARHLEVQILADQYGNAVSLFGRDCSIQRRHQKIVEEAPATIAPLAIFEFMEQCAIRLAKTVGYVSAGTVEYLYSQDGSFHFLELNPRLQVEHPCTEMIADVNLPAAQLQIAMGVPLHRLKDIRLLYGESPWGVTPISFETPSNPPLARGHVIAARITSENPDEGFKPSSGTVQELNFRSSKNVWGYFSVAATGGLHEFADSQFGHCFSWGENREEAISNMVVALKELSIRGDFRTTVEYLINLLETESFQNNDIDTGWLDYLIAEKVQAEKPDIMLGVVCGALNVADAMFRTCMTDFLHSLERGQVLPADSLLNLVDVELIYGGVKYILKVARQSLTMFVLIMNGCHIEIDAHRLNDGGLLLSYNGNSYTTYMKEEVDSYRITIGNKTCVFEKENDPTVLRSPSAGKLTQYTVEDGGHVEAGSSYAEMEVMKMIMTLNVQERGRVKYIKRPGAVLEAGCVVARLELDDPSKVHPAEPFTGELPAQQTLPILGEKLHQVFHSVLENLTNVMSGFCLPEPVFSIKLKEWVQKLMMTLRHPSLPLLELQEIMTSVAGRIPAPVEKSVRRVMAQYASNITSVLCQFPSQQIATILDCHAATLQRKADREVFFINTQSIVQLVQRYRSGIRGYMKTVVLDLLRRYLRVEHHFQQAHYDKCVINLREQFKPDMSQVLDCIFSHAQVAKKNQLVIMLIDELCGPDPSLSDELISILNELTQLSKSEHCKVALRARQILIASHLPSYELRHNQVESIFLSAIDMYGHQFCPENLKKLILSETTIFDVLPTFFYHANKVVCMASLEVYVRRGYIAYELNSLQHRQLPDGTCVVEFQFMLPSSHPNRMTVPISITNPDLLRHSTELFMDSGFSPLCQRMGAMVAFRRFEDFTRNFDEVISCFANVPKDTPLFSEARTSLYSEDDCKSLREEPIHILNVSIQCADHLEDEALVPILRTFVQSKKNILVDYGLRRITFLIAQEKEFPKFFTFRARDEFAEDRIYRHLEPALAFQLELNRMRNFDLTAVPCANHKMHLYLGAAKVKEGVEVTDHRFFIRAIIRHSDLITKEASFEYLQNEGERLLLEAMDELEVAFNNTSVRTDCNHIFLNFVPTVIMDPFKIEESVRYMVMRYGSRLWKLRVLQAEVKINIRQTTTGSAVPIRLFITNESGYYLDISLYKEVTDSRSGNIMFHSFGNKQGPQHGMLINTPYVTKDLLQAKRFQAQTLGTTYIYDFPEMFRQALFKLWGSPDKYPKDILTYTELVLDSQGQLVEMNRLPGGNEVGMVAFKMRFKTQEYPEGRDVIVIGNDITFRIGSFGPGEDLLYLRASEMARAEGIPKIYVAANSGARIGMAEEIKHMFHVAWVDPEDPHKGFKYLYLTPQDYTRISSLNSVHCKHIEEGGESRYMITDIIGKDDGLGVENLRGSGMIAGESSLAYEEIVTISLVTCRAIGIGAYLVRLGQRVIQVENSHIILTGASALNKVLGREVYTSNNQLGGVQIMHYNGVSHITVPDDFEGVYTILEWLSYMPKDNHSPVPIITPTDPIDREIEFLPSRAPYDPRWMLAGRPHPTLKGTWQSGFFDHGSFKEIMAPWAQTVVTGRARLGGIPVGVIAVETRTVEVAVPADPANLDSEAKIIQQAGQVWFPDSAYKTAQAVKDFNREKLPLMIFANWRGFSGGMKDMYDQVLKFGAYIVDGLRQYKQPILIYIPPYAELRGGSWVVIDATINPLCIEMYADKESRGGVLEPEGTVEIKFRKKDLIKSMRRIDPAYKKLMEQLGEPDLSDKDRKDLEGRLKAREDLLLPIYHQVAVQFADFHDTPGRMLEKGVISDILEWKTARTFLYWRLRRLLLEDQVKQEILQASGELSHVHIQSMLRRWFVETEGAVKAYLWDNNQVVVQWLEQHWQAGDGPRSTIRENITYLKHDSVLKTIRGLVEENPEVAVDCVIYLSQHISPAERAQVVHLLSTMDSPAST
Compound,IC90 ([3]; Table 4b),"IC90 [4, 16]",IC90 ([5]; Table 4b),"IC90 ([6]; Table 4b, 48 hours)",IC90 ([7]; Table 4b),IC90 ([10]; Table 4b),IC50 [11],IC50 [12],"MIC [13, 17]","MIC [14, 18]","MIC [15, 19]","IC90 ([8]; Table 4b, 48 hours)","IC90 ([9]; Table 4b, 48 hours)",also measured
O=C(c1c2ccccc2cc2ccccc12)N1CCC(N2CCC[C@@H](C(=O)N3CCOCC3)C2)CC1 [CP-640186],–,–,–,–,–,–,–,–,–,–,–,–,–,IC50 [1]: ~60 nM; IC50 [2]: ~60 nM
"COc1ccc(F)cc1[C@H](Cn1c(=O)n(C(C)(C)C(=O)N2CC=CC2)c(=O)c2c(C)c(-n3cccn3)sc21)OC1CCOCC1 [Compound I-45, (R)-3-(1-(2,5-dihydro-1H-pyrrol-1-yl)-2-methyl-1-oxopropan-2-yl)-1-(2-(5-fluoro-2-methoxyphenyl)-2-((tetrahydro-2H-pyran-4-yl)oxy)ethyl)-5-methyl-6-(1H-pyrazol-1-yl)thieno[2,3-d]pyrimidine-2,4(1H,3H)-dione]",10 µg/mL,10 µg/mL,2 µg/mL,2 µg/mL,10 µg/mL,2 µg/mL,0.6 to 3 nM,10 to 40 nM,2.1 to 4 µg/mL,2.1 to 4 µg/mL,0.25 to 1 µg/mL,–,–,"IC90 ([3]; Table 4a): > 50 µg/mL; IC90 ([4]; Table 4a, 48 hours, read-out: Concentration at 90% Inhibition Fv): > 50 µg/mL; IC90 ([5]; Table 4a): 2 µg/mL; IC90 ([6]; Table 4a, 48 hours): 2 µg/mL; IC90 ([7]; Table 4a): > 50 µg/mL; IC90 ([8]; Table 4a, 48 hours): > 50 µg/mL; Concentration at 90% Inhibition Pc ([8]; Table 4b, 48 hours): D (“D” provided a compound concentration of >50 ppm at 90% inhibition of fungal pathogens); Concentration at 90% Inhibition St ([9]; Table 4b, 48 hours): D (“D” provided a compound concentration of >50 ppm at 90% inhibition of fungal pathogens); IC90 ([9]; Table 4a, 48 hours): > 50 µg/mL; IC90 ([10]; Table 4a): 2 µg/mL"
"COCCO[C@@H](Cn1c(=O)n(C(C)(C)C(=O)NC2CCCCC2)c(=O)c2c(C)c(-n3cccn3)sc21)c1cc(F)ccc1OC [Compound I-46, (R)—N-cyclohexyl-2-(1-(2-(5-fluoro-2-methoxyphenyl)-2-(2-methoxyethoxy)ethyl)-5-methyl-2,4-dioxo-6-(1H-pyrazol-1-yl)-1,4-dihydrothieno[2,3-d]pyrimidin-3(2H)-yl)-2-methylpropanamide]",> 50 µg/mL,–,> 50 µg/mL,–,10 µg/mL,> 50 µg/mL,0.6 to 3 nM,> 40 nM,–,–,–,–,–,"IC90 ([4]; read-out: Concentration at 90% Inhibition Fv, Table 4b, 48 hours): > 50 µg/mL; IC90 [6]: 2 µg/mL; IC90 ([8]; 48 h, Table 4b): > 50 µg/mL; IC90 ([9]; 48 h, Table 4b): > 50 µg/mL; MIC ([13]; ATCC22019, 48 h): > 4.1 µg/mL; MIC ([14]; ATCC90028, 48 h): > 4.1 µg/mL; MIC ([15]; ATCC6258, 48 h): > 4.1 µg/mL"
"COCCO[C@@H](Cn1c(=O)n(C(C)(C)C(=O)NC2CCC2)c(=O)c2c(C)c(-n3cccn3)sc21)c1cc(F)ccc1OC [Compound I-47, (R)—N-cyclobutyl-2-(1-(2-(5-fluoro-2-methoxyphenyl)-2-(2-methoxyethoxy)ethyl)-5-methyl-2,4-dioxo-6-(1H-pyrazol-1-yl)-1,4-dihydrothieno[2,3-d]pyrimidin-3(2H)-yl)-2-methylpropanamide]",> 50 µg/mL,2 µg/mL,> 50 µg/mL,0.4 µg/mL,2 µg/mL,10 µg/mL,0.6 to 3 nM,10 to 40 nM,0.25 to 1 µg/mL,0.25 to 1 µg/mL,0.25 to 1 µg/mL,> 50 µg/mL,> 50 µg/mL,–
"COCCO[C@@H](Cn1c(=O)n([C@H](C)C(=O)N2CCCC2)c(=O)c2c(C)c(-n3cccn3)sc21)c1cc(F)ccc1OC [Compound I-76, 1-((R)-2-(5-fluoro-2-methoxyphenyl)-2-(2-methoxyethoxy)ethyl)-5-methyl-3-((R)-1-oxo-1-(pyrrolidin-1-yl)propan-2-yl)-6-(1H-pyrazol-1-yl)thieno[2,3-d]pyrimidine-2,4(1H,3H)-dione]",> 50 µg/mL,> 50 µg/mL,> 50 µg/mL,2 µg/mL,> 50 µg/mL,> 50 µg/mL,3 to 10 nM,> 40 nM,> 4.1 µg/mL,> 4.1 µg/mL,> 4.1 µg/mL,> 50 µg/mL,> 50 µg/mL,–
"COc1ccc(F)cc1[C@H](Cn1c(=O)n(C(C)(C)C(N)=O)c(=O)c2c(C)c(-n3cccn3)sc21)OCCC#N [Compound I-77, (R)-2-(1-(2-(2-cyanoethoxy)-2-(5-fluoro-2-methoxyphenyl)ethyl)-5-methyl-2,4-dioxo-6-(1H-pyrazol-1-yl)-1,4-dihydrothieno[2,3-d]pyrimidin-3(2H)-yl)-2-methylpropanamide]",> 50 µg/mL,10 µg/mL,> 50 µg/mL,2 µg/mL,> 50 µg/mL,> 50 µg/mL,0.6 to 3 nM,> 40 nM,> 4.1 µg/mL,> 4.1 µg/mL,> 4.1 µg/mL,> 50 µg/mL,> 50 µg/mL,–
"COc1ccc(F)cc1[C@H](Cn1c(=O)n(C(C)(C)C(=O)N2CCCC2)c(=O)c2c(C)c(-n3cccn3)sc21)OCCC#N [Compound I-81, (R)-3-(1-(5-fluoro-2-methoxyphenyl)-2-(5-methyl-3-(2-methyl-1-oxo-1-(pyrrolidin-1-yl)propan-2-yl)-2,4-dioxo-6-(1H-pyrazol-1-yl)-3,4-dihydrothieno[2,3-d]pyrimidin-(2H)-yl)ethoxy)propanenitrile]",2 µg/mL,0.4 µg/mL,0.08 µg/mL,0.08 µg/mL,0.4 µg/mL,2 µg/mL,0.6 to 3 nM,3 to 10 nM,> 4.1 µg/mL,> 4.1 µg/mL,> 4.1 µg/mL,> 50 µg/mL,> 50 µg/mL,–
COc1ccc(F)cc1[C@H](Cn1c(=O)n(C(C)(C)C(=O)O)c(=O)c2c(C)c(-n3cccn3)sc21)OCCC#N [Compound I-82],> 50 µg/mL,10 µg/mL,10 µg/mL,2 µg/mL,10 µg/mL,> 50 µg/mL,0.6 to 3 nM,10 to 40 nM,> 4.1 µg/mL,> 4.1 µg/mL,> 4.1 µg/mL,> 50 µg/mL,> 50 µg/mL,–
COc1ccc(F)cc1[C@@H](O)Cn1c(=O)n(C(C)(C)C(=O)O)c(=O)c2c(C)c(-n3cccn3)sc21 [Compound I-85],> 50 µg/mL,> 50 µg/mL,10 µg/mL,10 µg/mL,> 50 µg/mL,> 50 µg/mL,0.6 to 3 nM,10 to 40 nM,0.25 to 1 µg/mL,2.1 to 4 µg/mL,0.25 to 1 µg/mL,> 50 µg/mL,> 50 µg/mL,–
